Results as given in patent US20130183322A1, “IMMUNOSUPPRESSIVE DRUG COMBINATION FOR A STABLE AND LONG TERM ENGRAFTMENT” (YEDA RESEARCH AND DEVELOPMENT CO., LTD., priority 2011, published 2013).

Columns and labels:
[1] = test system: C57BL/6 (Ly-5.2) recipient mice; experiment: Determination of the minimal myeloablation with busulphan: donor type chimerism after congenic T cell depleted bone marrow transplant; format: in vivo
From the text: Animals: 6-12 week old female mice were used of the following strains: C57BL/6 (B6, recipient, H-2b, Ly-5.2), B6.SJL-Ptprca Pep3b/BoyJ (congenic strain, donor, H-2b, Ly-5.1) Balb/c (donor, H-2d) and C3H/Hen (recipient, H-2k) mice (all purchased from Harlan Laboratories Ltd, Ein Kerem Breeding farm Jerusalem). All mice were housed under specific pathogen free conditions and maintained under conditions approved by the Institutional Animal Care and Use Committee at the Weizmann Institute of Science.
Determination of the minimal myeloablation with Busulphan: Different groups of C57BL/6 (Ly-5.2) recipient mice were conditioned with the following final doses of IV Busulfex (Otsuka America Pharmaceutical, Inc.): 10, 20, 40, 50, 60, 80, and 100 mg/Kg/mouse. The final doses of IV Busulfex were divided in two and administered (IP) on day −2 and −1. On day 0, 25×10^6 T-depleted bone marrow cells isolated from B6.SJL-Ptprca Pep3b/BoyJ (Ly-5.1) donors were transplanted (IV) and the establishment of donor type chimerism was defined 1 and 12 month post transplant in the blood, spleen, and BM by FACS analysis of the congenic donor marker (Ly-5.1). Phenotypic expression analysis of CD8, CD4, CD45/B220 and CD11b markers on the LY-5.1^+ (donor) cells in the spleen and the BM of the donor chimera, was performed 12 month post transplant.
Flow cytometry for chimerism and multilineage analysis: For chimerism analysis, blood mononuclear cells were stained with labeled antibodies specific for Host (H-2K^k-phycoerythrin (PE)) and donor (H-2D^d-fluorescein isothiocyanate (FITC)) MHC class-I antigens. In the congenic model, anti-CD45.2-PE and anti-CD45.1-FITC antibodies were used to distinguish between the host and the donor.
Considering the importance of providing empty niches for successful BM engraftment, the present inventors initially determined the minimal myeloablation with busulphan which induced durable chimerism following infusion of congenic B6-SJL (Ly-5.1) T cell depleted bone marrow (TDBM, 25×10^6) into B6 (Ly-5.2) mice. […] Consequently, the sublethal dose of 60 mg/Kg was selected for further use in all attempts to induce allogeneic chimerism, in conjunction with transient debulking of host lymphocytes by a single infusion of anti-CD4 and anti-CD8 depleting antibodies.

[2] = test system: C3H/Hej (H-2Kk) recipient mice; experiment: Chimerism induction: allogeneic T-depleted BM transplant under non myeloablative conditioning and co-stimulatory blockade; format: in vivo
Description: C3H/Hen recipient mice were conditioned with busulfan (2×30 mg/Kg) and T cell debulking with […] anti-CD4 and anti-CD8. Post transplant treatment included […] CTLA4/FC, […] anti-CD48, and 0.1 mg FTY720 administered at the indicated time points.
Non myeloablative conditioning and co-stimulatory blockade Protocol: C3H/Hej (H-2K^k) recipient mice were conditioned with 30 mg/kg IV Busulfex on days −3 and −2 following T cell debulking on day −6 with 300 μg anti-CD4 (Bio Express, clone Gk1.5) and anti-CD8 (Bio Express, cone 53.6.72) antibodies. On day 0, 25×10^6 T-depleted BM cells from Balb/c-Nude (H-2D^d) donors were transplanted and subjected to co-stimulation blockade consisting of 200 μg CTLA4/FC (Chimerigen Laboratories), 250 μg anti-CD48 (Bio Express, clone HM 48) and 0.1 mg FTY720 (Novartis) that was administered as follows: CTLA4/FC and anti-CD48 were injected IP on days 0, 2, 4, 6, 21 and 35 while FTY720 was inoculated per OS for 5 days from day 0 to 5 and from day 6 till day 90 twice a week. Chimerism analysis was monitored every 30 days by FACS analysis. […]
Multilineage Chimerism was performed on donor chimera 70 to 163 days post transplant. […] Fluorescence-activated cell sorting (FACS) analysis was performed using a modified Becton Dickinson FACScan.

CS(=O)(=O)OCCCCOS(C)(=O)=O [busulphan]
donor type chimerism ([1]; at doses higher than 50 mg/Kg (tested 10 to 100 mg/Kg)): above 50% | donor type chimerism ([1]; busulphan 50 mg/Kg, congenic B6-SJL (Ly-5.1) TDBM 25x10^6 into B6 (Ly-5.2) mice): 40±26% | donor type chimerism ([1]; busulphan 60 mg/Kg, congenic B6-SJL (Ly-5.1) TDBM 25x10^6 into B6 (Ly-5.2) mice): 66±7% | donor type chimerism ([1]; busulphan 100 mg/Kg, congenic B6-SJL (Ly-5.1) TDBM 25x10^6 into B6 (Ly-5.2) mice): 75±2%

CCCCCCCCc1ccc(CCC(N)(CO)CO)cc1.Cl [FTY720, 2-amino-2-[2-(4-octylphenyl)ethyl]propane-1,3-diol hydrochloride]
chimerism achieved (in words) ([2]; allogeneic megadose TDBM after busulfan 60 mg/Kg plus anti-CD4/anti-CD8 debulking, post transplant treatment): no chimerism | mice with donor type chimerism (number of mice) ([2]; two independent experiments, median follow-up 116 days (range 70 to 163) beyond cessation of immune suppression, for the combination, mice with more than 80% chimerism): 0 out of 7
